In patent US11505811B2, “Method for the preparation of 2,4-dihydroxybutyrate” (ADISSEO FRANCE S.A.S., priority 2012, dated 2022):
Positions count from the first letter of the chain named. Where two headings read alike, the source gives them in different places.

Key:
Assay type in all cases: biochemical
[1] = molecular target: T1, Escherichia coli malate dehydrogenase Ec-Mdh variant R81A 112V, SEQ ID No. 115 (Escherichia coli, UniProt P61889, I12V/R81A); assay: OHB/oxaloacetate reductase assay, Ec-Mdh R81A 112V; conditions: pH 7, 37° C.
T1 sequence (P61889 1-312 I12V/R81A): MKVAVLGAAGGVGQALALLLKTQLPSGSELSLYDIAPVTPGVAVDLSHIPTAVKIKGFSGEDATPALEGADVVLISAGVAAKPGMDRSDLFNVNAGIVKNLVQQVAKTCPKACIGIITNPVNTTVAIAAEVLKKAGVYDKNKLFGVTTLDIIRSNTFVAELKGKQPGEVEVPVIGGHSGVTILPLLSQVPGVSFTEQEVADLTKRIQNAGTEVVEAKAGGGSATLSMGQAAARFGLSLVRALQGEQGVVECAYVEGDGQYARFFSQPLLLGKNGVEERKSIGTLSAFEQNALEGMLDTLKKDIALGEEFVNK
Description: (§1) Enzymatic assays: The reaction mixture contained 60 mM Hepes (pH 7), 50 mM potassium chloride, 5 mM MgCl2, 0.25 mM NADH, (optionally 5 mM fructose-1,6-bisphosphate) (all products from Sigma), and appropriate amounts of purified malate or lactate dehydrogenase or cell extract. Reactions were started by adding appropriate amounts of 2-oxo-4-hydroxybutyrate (OHB), pyruvate, or oxaloacetate (OAA). Enzymatic assays were carried out at 37° C. in 96-well flat bottomed microtiter plates in a final volume of 250 μL. The reactions were followed by the characteristic absorption of NADH at 340 nm (εNADH=6.22 mM^−1 cm^−1) in a microplate reader (BioRad 680XR).
(§2) Site-directed mutagenesis of the mdh gene from E. coli was carried out as described in Example 2 using the primers listed in Table 5. Plasmid pET28-Ec-mdh was used as the template.
(§3) Mutant enzymes were expressed, purified and tested for OHB and oxaloacetate reductase activity as described in Example 1. […] The mutation R81A in Ec-Mdh was combined with additional changes in the protein sequence.

[2] = molecular target: T2, Escherichia coli malate dehydrogenase Ec-Mdh variant R81A M85Q, SEQ ID No. 104 (Escherichia coli, UniProt P61889, M85Q/R81A); assay: OHB/oxaloacetate reductase assay, Ec-Mdh R81A M85Q; conditions: pH 7, 37° C.
T2 sequence (P61889 1-312 R81A/M85Q): T1 sequence (P61889 1-312 I12V/R81A) with V12I, M85Q
Description: as §1, §2, §3

[3] = molecular target: T3, Escherichia coli malate dehydrogenase Ec-Mdh variant R81A G179D, SEQ ID No. 112 (Escherichia coli, UniProt P61889, G179D/R81A); assay: OHB/oxaloacetate reductase assay, Ec-Mdh R81A G179D; conditions: pH 7, 37° C.
T3 sequence (P61889 1-312 R81A/G179D): T1 sequence (P61889 1-312 I12V/R81A) with V12I, G179D
Description: as §1, §2, §3

[4] = molecular target: T4, Escherichia coli malate dehydrogenase Ec-Mdh variant R81A M85E, SEQ ID No. 106 (Escherichia coli, UniProt P61889, M85E/R81A); assay: OHB/oxaloacetate reductase assay, Ec-Mdh R81A M85E; conditions: pH 7, 37° C.
T4 sequence (P61889 1-312 R81A/M85E): T1 sequence (P61889 1-312 I12V/R81A) with V12I, M85E
Description: as §1, §2, §3

[5] = molecular target: T5, Escherichia coli malate dehydrogenase Ec-Mdh variant R81A M85E I12V, SEQ ID No. 110 (Escherichia coli, UniProt P61889, I12V/M85E/R81A); assay: OHB/oxaloacetate reductase assay, Ec-Mdh R81A M85E I12V; conditions: pH 7, 37° C.
T5 sequence (P61889 1-312 I12V/R81A/M85E): T1 sequence (P61889 1-312 I12V/R81A) with M85E
Description: as §1, §2, §3

[6] = molecular target: T6, Escherichia coli malate dehydrogenase Ec-Mdh variant R81A M85Q I12V, SEQ ID No. 108 (Escherichia coli, UniProt P61889, I12V/M85Q/R81A); assay: OHB/oxaloacetate reductase assay, Ec-Mdh R81A M85Q I12V; conditions: up to 0.5 mM oxaloacetate; pH 7, 37° C.; read-out: Km (OAA)
T6 sequence (P61889 1-312 I12V/R81A/M85Q): T1 sequence (P61889 1-312 I12V/R81A) with M85Q
Description: as §1, §2, §3

[7] = molecular target: T7, Escherichia coli malate dehydrogenase Ec-Mdh variant R81A D86S, SEQ ID No. 1114 (Escherichia coli, UniProt P61889, D86S/R81A); assay: OHB/oxaloacetate reductase assay, Ec-Mdh R81A D86S; conditions: pH 7, 37° C.
T7 sequence (P61889 1-312 R81A/D86S): T1 sequence (P61889 1-312 I12V/R81A) with V12I, D86S
Description: as §1, §2, §3

[8] = molecular target: T8, Escherichia coli malate dehydrogenase Ec-Mdh variant R81A, SEQ ID No. 102 (Escherichia coli, UniProt P61889, R81A); assay: OHB/oxaloacetate reductase assay, Ec-Mdh R81A; conditions: pH 7, 37° C.
T8 sequence (P61889 with tags, fused parts or gaps R81A): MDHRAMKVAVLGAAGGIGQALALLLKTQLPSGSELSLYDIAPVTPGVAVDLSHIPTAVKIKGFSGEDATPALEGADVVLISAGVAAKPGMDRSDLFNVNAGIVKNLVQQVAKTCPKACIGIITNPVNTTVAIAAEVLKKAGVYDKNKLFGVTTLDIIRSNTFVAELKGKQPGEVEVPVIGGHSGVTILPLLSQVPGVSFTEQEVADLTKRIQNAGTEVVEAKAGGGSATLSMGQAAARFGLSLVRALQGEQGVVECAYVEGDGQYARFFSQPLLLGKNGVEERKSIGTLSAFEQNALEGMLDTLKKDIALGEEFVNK
Description: as §1, §2, §3

[9] = molecular target: T9, Escherichia coli (L)-malate dehydrogenase Ec-Mdh, wild type, SEQ ID NO: 2 (Escherichia coli, UniProt P61889); assay: OHB/oxaloacetate reductase assay (NADH oxidation at 340 nm), Ec-Mdh wild type; conditions: Table 6; up to 50 mM OHB; pH 7, 37° C., 0.25 mM NADH
T9 construct: made in house; host or cells: E. coli BL21 (DE3) star
T9 sequence (P61889 1-312): T1 sequence (P61889 1-312 I12V/R81A) with V12I, A81R
Text: The genes coding for (L)-malate dehydrogenase in Escherichia coli, Ec-mdh (SEQ ID NO: 1), (D)-lactate dehydrogenase in E. coli, Ec-ldhA (SEQ ID NO: 3), (L)-lactate dehydrogenase of Lactococcus lactis, Ll-ldhA (SEQ ID NO: 5), (L)-lactate dehydrogenase of Bacillus subtilis, Bs-ldh (SEQ ID NO: 7), (L)-lactate dehydrogenase of Geobacillus stearothermophilus, Gs-ldh (SEQ ID NO: 9), the two isoforms of the (L)-lactate dehydrogenase of Oryctalagus cuniculus, Oc-ldhA (SEQ ID NO: 11 and SEQ ID NO: 13), were amplified by PCR using the high-fidelity polymerase Phusion™ (Fermentas) and the primers listed in Table 1. Genomic DNAs of E. coli MG1655, L. lactis IL1403, and B. subtilis strain 168 were used as the template. The genes Oc-ldhA, and Gs-ldh were codon-optimized for expression in E. coli and synthesized by MWG Eurofins. The primers introduced restriction sites (Table 1) upstream of the start codon and downstream of the stop codon, respectively, facilitating the ligation of the digested PCR products into the corresponding sites of the pET28a+ (Novagen) expression vector using T4 DNA ligase (Fermentas). Ligation products were transformed into E. coli DH5a cells (NEB). […]

[10] = up to 0.5 mM oxaloacetate, read-out: Km (OAA)
[11] = up to 50 mM OHB, read-out: Km (OHB)

Row | SMILES | Km [1, 10] | Km [2, 10] | Km [3, 10] | Km [4, 10] | Km [5, 10] | Km [6] | Km [7, 10] | Km [8, 10] | Km [1, 11] | Km [2, 11] | Km [3, 11] | Km [4, 11] | Km [9] | Km [5, 11] | Km [7, 11] | Km [8, 11]
1 | O=C(O)CC(=O)C(=O)O [oxaloacetate, reference compound] | > 0.5 mM | > 0.5 mM | > 0.5 mM | > 0.5 mM | > 0.5 mM | > 0.5 mM | > 0.5 mM | > 0.5 mM | – | – | – | – | – | – | – | –
2 | O=C(O)C(=O)CCO [OHB, 2-oxo-4-hydroxybutyrate] | – | – | – | – | – | – | – | – | > 50 mM | > 50 mM | > 50 mM | > 50 mM | > 50 mM | > 50 mM | > 50 mM | > 50 mM
